Test results reported in patent US8163766B2, “Beta-secretase modulators and methods of use” (Amgen Inc., priority 2005, dated 2012).

Tested on: Aβ 40 in conditioned media of cells stably expressing Amyloid Precursor Protein (APP)
Assay: BACE Cell-Based Assay (Aβ40 in conditioned medium, sandwich ELISA)
Details: 24 hours of incubation with the test compounds, Aβ 40 by sandwich ELISA, read-out: IC50 values in the cell-based assay (inhibition of Aβ 40)
Description: The cell-based assay measures inhibition or reduction of Aβ40 in conditioned medium of test compound treated cells, which express amyloid precursor protein.
Cells stably expressing Amyloid Precursor Protein (APP) were plated at a density of 40K cells/well in 96 well plates (Costar). The cells were cultivated for 24 h at 37° C. and 5% CO2 in DMEM supplemented with 10% FBS. The test compounds were then added to cells in 10-point dose response concentrations with the starting concentration being either 100 μM or 10 μM. The compounds were diluted from stock solutions in DMSO and the final DMSO concentration of the test compounds on cells was 0.1%. After 24 hours of incubation with the test compounds the supernatant conditioned media was collected and the Aβ 40 levels were determined using a sandwich ELISA. The IC50 of the compound was calculated from the percent of control or percent inhibition of Aβ 40 as a function of the concentration of the test compound.
The sandwich ELISA to detect Aβ 40 was performed in 96 well microtiter plates, which were pre-treated with goat anti-rabbit IgG (Pierce). The capture and detecting antibody pair that were used to detect Aβ 40 from cell supernatants were affinity purified pAb40 (Biosource) and biotinylated 6E10 (Signet Labs Inc.), respectively. The optimal concentration for the pAb40 antibody was 3 μg/ml in Superblock/TBS (Pierce) that was supplemented with 0.05% Tween 20 (Sigma). Optimal concentration for the detection antibody 6E10-biotinylated was […] in Superblock/TBS (Pierce) that had been supplemented with 2% normal goat serum and 2% normal mouse serum.
Cellular supernatants were incubated with the capture antibody for 3 h at 4° C., followed by 3 wash steps in TBS-tween (0.05%). The detecting antibody incubation was for 2 h at 4° C., again followed by the wash steps as described previously. The final readout of the ELISA is Time-Resolved Fluorescence (counts per minute) using Delfia reagents Streptavidin-Europium and Enhancement solutions (Perkin Elmer) and the Victor 2 multilabel counter (Perkin Elmer).

CCc1ccc2c(c1)[C@@H](NC[C@@H](O)[C@H](Cc1ccccc1)NC(=O)[C@@H]1CN(C(C)=O)c3ccccc3O1)CC1(CCCC1)O2 [Example 51, (S)-4-acetyl-N-((2S,3R)-4-((S)-6-ethyl-2,2-spirocyclopentylchroman-4-ylamino)-3-hydroxy-1-phenylbutan-2-yl)-3,4-dihydro-2H-benzo[b][1,4]oxazine-2-carboxamide]
IC50: ≤ 5 µM

CCc1ccc2c(c1)[C@@H](NC[C@@H](O)[C@H](Cc1ccccc1)NC(=O)[C@H]1CN(C(=O)OC(C)(C)C)c3ccccc3O1)CC1(CCCC1)O2 [Example 52, (R)-tert-Butyl 2-(((2S,3R)-4-((S)-6-ethyl-2,2-spirocyclopentylchroman-4-ylamino)-3-hydroxy-1-phenylbutan-2-yl)carbamoyl)-2,3-dihydrobenzo[b][1,4]oxazine-4-carboxylate]
IC50: ≤ 5 µM

CCc1ccc2c(c1)[C@@H](NC[C@@H](O)[C@H](Cc1ccccc1)NC(=O)c1cc(N3CCCC3=O)c(=O)n(C3CCCC3)c1)CC1(CCCC1)O2 [Example 105]
IC50: ≤ 5 µM

CCc1ccc2c(c1)[C@@H](NC[C@@H](O)[C@H](Cc1ccccc1)NC(=O)c1cc(-c3ccccc3F)c(=O)n3c1CCC3)CC1(CCCC1)O2 [Example 107, N-((2S,3R)-4-((8)-6-Ethyl-2,2-spirocyclopentylchroman-4-ylamino)3-hydroxy-1-phenylbutan-2-yl)-6-(2-fluorophenyl)-5-oxo-1,2,3,5-tetrahydroindolizine-8-carboxamide]
IC50: ≤ 5 µM

CCc1ccc2c(c1)[C@@H](NC[C@@H](O)[C@H](Cc1ccccc1)NC(=O)c1cc(-c3cccc(F)c3)c(=O)n3c1CCC3)CC1(CCCC1)O2 [Example 108, N-((2S,3R)-4-((8)-6-Ethyl-2,2-spirocyclopentylchroman-4-ylamino)3-hydroxy-1-phenylbutan-2-yl)-6-(3-fluorophenyl)-5-oxo-1,2,3,5-tetrahydroindolizine-8-carboxamide]
IC50: ≤ 5 µM

O=C(N[C@@H](Cc1ccccc1)[C@H](O)CN[C@H]1CC2(CCCC2)Oc2ccc(F)cc21)c1cc(N2CCCC2=O)c(=O)n(C2CCCC2)c1 [Example 110]
IC50: ≤ 5 µM

O=C(N[C@@H](Cc1ccccc1)[C@H](O)CN[C@H]1CC2(CCCC2)Oc2c(F)cc(F)cc21)c1cc(N2CCCC2=O)c(=O)n(C2CCCC2)c1 [Example 111]
IC50: ≤ 5 µM

CCc1ccc2c(c1)[C@@H](NC[C@@H](O)[C@H](Cc1ccccc1)NC(=O)c1cc(N3CCCC3=O)c(=O)n(C3CCCC3)c1)CC1(CCC1)O2 [Example 116]
IC50: ≤ 5 µM

CCc1ccc2c(c1)[C@@H](NC[C@@H](O)[C@H](Cc1ccccc1)NC(=O)c1ccc(=O)n(C3CCCC3)c1)CC1(CCC1)O2 [Example 117]
IC50: ≤ 5 µM

CCc1ccc2c(c1)[C@@H](NC[C@@H](O)[C@H](Cc1ccccc1)NC(=O)c1ccc(=O)n(CC(C)C)c1)CC1(CCC1)O2 [Example 118]
IC50: ≤ 5 µM

CCc1ccc2c(c1)[C@@H](NC[C@@H](O)[C@H](Cc1ccccc1)NC(=O)c1ccc(=O)n(CC(F)(F)F)c1)CC1(CCC1)O2 [Example 119]
IC50: ≤ 5 µM

CCc1ccc2c(c1)[C@@H](NC[C@@H](O)[C@H](Cc1ccccc1)NC(=O)c1ccc(=O)n(-c3ccccc3)c1)CC1(CCC1)O2 [Example 120]
IC50: ≤ 5 µM

O=C(N[C@@H](Cc1ccccc1)[C@H](O)CN[C@H]1CC2(CCCC2)Oc2ccc(Br)cc21)c1cc(N2CCCC2=O)c(=O)n(C2CCCC2)c1 [Example 121]
IC50: ≤ 5 µM

O=C(N[C@@H](Cc1ccccc1)[C@H](O)CN[C@H]1CC2(CCCC2)Oc2ccc(Br)cc21)c1ccc(=O)n(C2CCCC2)c1 [Example 122]
IC50: ≤ 5 µM

CC(C)Cn1cc(C(=O)N[C@@H](Cc2ccccc2)[C@H](O)CN[C@H]2CC3(CCCC3)Oc3ccc(Br)cc32)ccc1=O [Example 123]
IC50: ≤ 5 µM

CC(C)(C)Cc1ccc2c(c1)[C@@H](NC[C@@H](O)[C@H](Cc1ccccc1)NC(=O)c1cc(N3CCCC3=O)c(=O)n(C3CCCC3)c1)CC1(CCCC1)O2 [Example 124]
IC50: ≤ 5 µM

CC(C)(C)Cc1ccc2c(c1)[C@@H](NC[C@@H](O)[C@H](Cc1ccccc1)NC(=O)c1ccc(=O)n(C3CCCC3)c1)CC1(CCCC1)O2 [Example 125]
IC50: ≤ 5 µM
